Data: paper PMC7375007 (Journal of clinical pharmacology, 2019)
Where two headings read alike, the source gives them in different places.

Columns and labels:
[1] = Tacrolimus whole-blood trough concentration; type: in vivo, human (stable renal transplant recipients); details: human, oral
[2] = tacrolimus- and mycophenolic acid-treated patients; ELITE-SYMPHONY study; cited from earlier work
[3] = for Patients within or below the mycophenolic acid AUC0–12h target range: patients with mild gastrointestinal adverse effects (score 1–2); for Cmax / Tmax / AUC(0-t) / AUC / concentration at 12 h / clearance: human, plasma, oral; for AUC: Mycophenolic acid AUC6–12h, estimate of enterohepatic recirculation; for concentration at 12 h: Mycophenolic acid CP(12h); for clearance: Mycophenolic acid clearance; for Mycophenolic acid dose-normalized AUC0–12h: normalized to 1-mg mycophenolic acid dose equivalent
[4] = Gastrointestinal adverse effect evaluation; type: in vivo, human (stable renal transplant recipients); details: patients with score > 0
[5] = Enterohepatic circulation of mycophenolic acid; type: in vivo, human (stable renal transplant recipients); details: all patients
[6] = on tacrolimus and enteric-coated mycophenolate sodium
[7] = with tacrolimus and enteric-coated mycophenolate sodium, female (n = 29), steady state
[8] = with tacrolimus and enteric-coated mycophenolate sodium, male (n = 38), steady state

In the case of C=CC[C@@H]1/C=C(\C)C[C@H](C)C[C@H](OC)[C@H]2O[C@@](O)(C(=O)C(=O)N3CCCC[C@H]3C(=O)O[C@H](/C(C)=C/[C@@H]3CC[C@@H](O)[C@H](OC)C3)[C@H](C)[C@@H](O)CC1=O)[C@H](C)C[C@@H]2OC [Tacrolimus], the concentration at 0 h ([1]; female) is given as 7.1 ± 1.9 ng/mL, the concentration at 0 h ([1]; male) is given as 7.3 ± 2 ng/mL and the Diarrhea [2] is given as 25.3%.
With COc1c(C)c2c(c(O)c1C/C=C(\C)CCC(=O)O)C(=O)OC2 [Mycophenolic acid] the “Patients within or below the mycophenolic acid AUC0–12h target range of 30–60 mg·h/L” value ([3]; cyclosporine and mycophenolate mofetil, patients with no gastrointestinal adverse effects) was 87%, the “Patients within or below the mycophenolic acid AUC0–12h target range” value ([3]; cyclosporine) was 88.5% and the Cmax ([3]; female, 546 mg) was 21700 ± 10600 ng/mL. For the same compound, the Tmax ([3]; female, 546 mg) was 3.16 ± 2.57 h, the Cmax ([3]; female, 591 mg) was 6490 ± 2300 ng/mL and the Tmax ([3]; female, 591 mg) was 2.07 ± 0.11 h. The AUC(0-t) ([3]; female, Mycophenolic acid AUC0–12h, with cyclosporine and mycophenolate mofetil, female (n = 14), steady state) was 40100 ± 13800 ng·h/mL, the AUC(0-t) ([3]; female, Mycophenolic acid AUC0–12h, with tacrolimus and enteric-coated mycophenolate sodium, female (n = 29), steady state) was 73400 ± 31200 ng·h/mL and the AUC ([3]; female, with cyclosporine and mycophenolate mofetil, female (n = 14)) was 15400 ± 5510 ng·h/mL. For the same compound, the AUC ([3]; female, with tacrolimus and enteric-coated mycophenolate sodium, female (n = 29)) was 29300 ± 24000 ng·h/mL, the concentration at 12 h ([3]; female, with cyclosporine and mycophenolate mofetil, female (n = 14), steady state) was 2200 ± 1000 ng/mL and the concentration at 12 h ([3]; female, with tacrolimus and enteric-coated mycophenolate sodium, female (n = 29), steady state) was 4300 ± 2300 ng/mL. It also gave a clearance ([3]; female, African American women receiving tacrolimus) of 162 mL/min, a clearance ([3]; with cyclosporine, all patients) of 342 mL/min and a clearance ([3]; with tacrolimus, all patients) of 177 mL/min. The AUC(0-t) ([3]; male) was 65500 ± 30600 ng·h/mL, the Cmax ([3]; male, 587 mg) was 19600 ± 11200 ng/mL and the Tmax ([3]; male, 587 mg) was 2.88 ± 2.06 h. For the same compound, the Cmax ([3]; male, 715 mg) was 10300 ± 6500 ng/mL, the Tmax ([3]; male, 715 mg) was 1.92 ± 1.2 h and the AUC(0-t) ([3]; male, Mycophenolic acid AUC0–12h, with cyclosporine and mycophenolate mofetil, male (n = 66), steady state) was 41000 ± 18400 ng·h/mL. The AUC ([3]; male, with cyclosporine and mycophenolate mofetil, male (n = 66)) was 12600 ± 7400 ng·h/mL, the AUC ([3]; male, with tacrolimus and enteric-coated mycophenolate sodium, male (n = 38)) was 23800 ± 13400 ng·h/mL and the concentration at 12 h ([3]; male, with cyclosporine and mycophenolate mofetil, male (n = 66), steady state) was 2100 ± 1500 ng/mL. The concentration at 12 h ([3]; male, with tacrolimus and enteric-coated mycophenolate sodium, male (n = 38), steady state) was 3900 ± 2200 ng/mL, the “Patients within the target mycophenolic acid AUC0–12h range of 30–60 mg h/L” value ([3]; men receiving cyclosporine and mycophenolate mofetil) was 54.5% and the “Patients exceeding the target mycophenolic acid AUC0–12h range of 30–60 mg h/L” value ([3]; men receiving tacrolimus and enteric-coated mycophenolate sodium) was 50%. The “Patients achieving target mycophenolic acid AUC0–12h of 30–60 mg·h/L” value ([3]; on cyclosporine and mycophenolate mofetil) was 56.3%, the “Patients above the mycophenolic acid AUC0–12h target of 60 mg·h/L” value [3, 6] was 56.7% and the “Patients achieving target mycophenolic acid AUC0–12h of 30–60 mg·h/L” value [3, 6] was 34.3%. For the same compound, the “Patients exceeding the mycophenolic acid AUC0–12h target range” value ([3]; tacrolimus and enteric-coated mycophenolate sodium, moderate to severe gastrointestinal adverse effects (score ≥ 3)) was 50%, the “Patients above the mycophenolic acid AUC0–12h target range” value ([3]; tacrolimus and enteric-coated mycophenolate sodium, patients with no gastrointestinal adverse effects) was 78.6% and the “Lymphopenic patients with mycophenolic acid AUC0–12h > 60 mg·h/L” value ([3]; tacrolimus-based regimen (22 of 35)) was 62.9%. The “Patients within or below the mycophenolic acid AUC0–12h target range” value ([3]; tacrolimus) was 53.8%, the “Mycophenolic acid dose-normalized AUC0–12h” value ([3]; with cyclosporine and mycophenolate mofetil, female (n = 14)) was 0.066 ± 0.015 mg·h/L/mg and the “Mycophenolic acid dose-normalized AUC0–12h” value ([3]; with cyclosporine and mycophenolate mofetil, male (n = 66)) was 0.058 ± 0.032 mg·h/L/mg. For the same compound, the “Mycophenolic acid dose-normalized AUC0–12h” value ([3]; with tacrolimus and enteric-coated mycophenolate sodium, female (n = 29)) was 0.127 ± 0.053 mg·h/L/mg, the “Mycophenolic acid dose-normalized AUC0–12h” value ([3]; with tacrolimus and enteric-coated mycophenolate sodium, male (n = 38)) was 0.103 ± 0.045 mg·h/L/mg and the “Patients within the target mycophenolic acid AUC0–12h range of 30–60 mg h/L” value ([3]; women receiving cyclosporine and mycophenolate mofetil) was 64.3%. For the same compound, the “Patients exceeding the target mycophenolic acid AUC0–12h range of 30–60 mg h/L” value ([3]; women receiving tacrolimus and enteric-coated mycophenolate sodium) was 65.5%, the “Gastrointestinal adverse effect score” value ([4]; mycophenolic acid AUC0–12h < 30 mg·h/L (n = 22)) was 1.7 ± 0.8 and the “Gastrointestinal adverse effect score” value ([4]; mycophenolic acid AUC0–12h > 60 mg h/L (n = 34)) was 3.0 ± 1.7. The “Gastrointestinal adverse effect score” value ([4]; mycophenolic acid AUC0–12h within 30–60 mg·h/L (n = 54)) was 2.2 ± 1.1, the “Enterohepatic circulation, frequency” value ([5]; with cyclosporine) was 45% and the “Enterohepatic circulation, frequency” value ([5]; with tacrolimus) was 78%. For the same compound, the “Enterohepatic circulation, frequency” value ([5]; with tacrolimus, listed as mycophenolic acid) was “More than 75%”.
In the case of COc1c(C)c2c(c(O[C@@H]3O[C@H](C(=O)O)[C@@H](O)[C@H](O)[C@H]3O)c1C/C=C(\C)CCC(=O)O)C(=O)OC2 [Mycophenolic acid glucuronide], the “Mycophenolic acid glucuronide AUC0–12h, fold higher in women than men” value ([3]; tacrolimus group) is reported as 1.37 fold, the “Mycophenolic acid glucuronide AUC0–12h” value [3, 7] is reported as 1068 ± 557 mg·h/L and the “Mycophenolic acid glucuronide CP(12h)” value [3, 7] is reported as 75.1 ± 45.2 mg/L. The “Mycophenolic acid glucuronide Cmax” value [3, 7] was 126000 ± 60000 ng/mL, the “Mycophenolic acid glucuronide tmax” value [3, 7] was 3.68 ± 2.45 h and the “Mycophenolic acid glucuronide AUC0–12h” value [3, 8] was 780 ± 336 mg·h/L. For the same compound, the “Mycophenolic acid glucuronide CP(12h)” value [3, 8] was 54.5 ± 28.0 mg/L, the “Mycophenolic acid glucuronide Cmax” value [3, 8] was 96700 ± 47700 ng/mL and the “Mycophenolic acid glucuronide tmax” value [3, 8] was 3.89 ± 1.76 h.
